One molecule from paper PMC5201249, “Agrobacterium tumefaciens estC, Encoding an Enzyme Containing Esterase Activity, Is Regulated by EstR, a Regulator in the MarR Family” (PLoS ONE, 2016) can be followed below.

The experiment concerns the target T1, EstR (Atu5211) (Agrobacterium fabrum, UniProt A9CLK2).
T1 construct: full length, non-tagged, pETBlue-2, E. coli BL21(DE3), heparin and Q-Sepharose columns
T1 sequence (A9CLK2 1-155): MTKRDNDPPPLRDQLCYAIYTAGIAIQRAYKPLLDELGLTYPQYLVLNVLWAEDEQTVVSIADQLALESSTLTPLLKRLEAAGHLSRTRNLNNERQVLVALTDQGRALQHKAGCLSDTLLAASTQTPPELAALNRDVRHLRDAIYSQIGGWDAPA
Nature of the experiment: gel mobility shift: loss of EstR binding to […]-labelled 314-bp estR-estC promoter DNA. The settings on record: 1 mM CHP; pH 7.0, 25 C; covalent (oxidation of sensing Cys16).

For `CC(C)(OO)c1ccccc1` [CHP, cumene hydroperoxide], the “gel mobility shift: loss of EstR binding to 32P-labelled 314-bp estR-estC promot” value is on record as “prior CHP treatment of EstR prevented the repressor from binding to the promoter fragment”.
